Values after ≈ are worked out from the molar mass of the structure shown.
Columns and labels:
Assay type in all cases: cell-based
S. pyogenes (ATCC 51339) = experiment: Antibacterial susceptibility testing (MIC, broth microdilution or agar dilution), S. pyogenes; conditions: Streptococcus pyogenes, ATCC51339; read-out: S. pyogenes (ATCC 51339) minimal inhibitory concentration (MIC)
Summary of the method: (§1)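 MICs by CLSI (M7-A7) broth microdilution or agar dilution, against reference ATCC strains as listed.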

[1] = system: H. influenzae (ATCC 49247); experiment: Antibacterial susceptibility testing (MIC, broth microdilution or agar dilution), H. influenzae; conditions: Haemophilus influenzae, ATCC49247; read-out: H. influenzae (ATCC 49247) minimal inhibitory concentration (MIC)
Description: (§2) Compounds of the invention were tested for antimicrobial activity by susceptibility testing in liquid or on solid media. MICs for compounds against each strain were determined by the broth microdilution or agar dilution method according to the guidelines of the Clinical Laboratories and Standards Institute, formerly the National Committee for Clinical Laboratory Standards (Clinical Laboratories and Standards Institute. Methods for Dilution Antimicrobial Susceptibility Tests for Bacteria That Grow Aerobically; Approved Standard—Seventh Edition. Document M7-A7. CLSI, Wayne, Pa., 2006; Clinical Laboratories and Standards Institute. The Gram positive bacterial strains tested include S. aureus (Staphylococcus aureus (Isolate ID ATCC 29213)), E. faecalis (Enterococcus faecalis (Isolate ID ATCC 29212)) and S. pyogenes (Streptococcus pyogenes (Isolate ID ATCC 51339)). The Gram negative bacterial strains tested include H. influenzae (Haemophilus influenzae (Isolate ID ATCC 49247)).

S. aureus (ATCC 29213) = experiment: Antibacterial susceptibility testing (MIC, broth microdilution or agar dilution), S. aureus; conditions: Staphylococcus aureus, ATCC29213; read-out: S. aureus (ATCC 29213) minimal inhibitory concentration (MIC)
Summary of the method: as §1

E. faecalis (ATCC 29212) = experiment: Antibacterial susceptibility testing (MIC, broth microdilution or agar dilution), E. faecalis; conditions: Enterococcus faecalis, ATCC29212; read-out: E. faecalis (ATCC 29212) minimal inhibitory concentration (MIC)
Description: as §2

| Compound | MIC (S. pyogenes (ATCC 51339)) [µg/mL] | MIC [1] [µg/mL] | MIC (S. aureus (ATCC 29213)) [µg/mL] | MIC (E. faecalis (ATCC 29212)) [µg/mL] |
| --- | --- | --- | --- | --- |
| CCNC(=O)Nc1cc(Nc2ccccc2)c(C(=O)Nc2ccc(CC(=O)O)cc2)cn1 [Compound 71, 2-(4-(6-(3-ethylureido)-4-(phenylamino)nicotinamido)phenyl)acetic acid] | ≤ 1 | 2 (≈ 4.61 µM) | 16 (≈ 36.9 µM) | – |
| CCNC(=O)Nc1cc(Nc2ccccc2)c(C(=O)Nc2ccc(CCC(=O)OC)cc2)cn1 [Compound 77] | ≤ 1 | 2 (≈ 4.33 µM) | ≤ 1 | – |
| CCNC(=O)Nc1cc(Nc2cccc(S(F)(F)(F)(F)F)c2)c(C(=O)Nc2ccc(CCC(=O)O)cc2)cn1 [Compound 237, 3-(4-{[(6-[(ethylcarbamoyl)amino]-4-{[3-(pentafluorothio)phenyl]amino}pyridin-3-yl)carbonyl]amino}phenyl)propanoic acid] | – | 2 (≈ 3.49 µM) | ≤ 1 | ≤ 1 |
| CCNC(=O)Nc1cc(Nc2ccc(F)c(C)c2)c(C(=O)Nc2ccc(CCC(=O)O)cc2)cn1 [Compound 223, 3-{4-[({6-[(ethylcarbamoyl)amino]-4-[(4-fluoro-3-methylphenyl)amino]pyridin-3-yl}carbonyl)amino]phenyl}propanoic acid] | – | ≤ 1 | ≤ 1 | ≤ 1 |
| CCNC(=O)Nc1cc(Nc2ccccc2)c(C(=O)Nc2ccc(NS(C)(=O)=O)cc2)cn1 [Compound 232, 6-[(ethylcarbamoyl)amino]-N-{4-[(methylsulfonyl)amino]phenyl}-4-(phenylamino)pyridine-3-carboxamide] | – | 4 (≈ 8.54 µM) | 2 (≈ 4.27 µM) | ≤ 1 |
| CCNC(=O)Nc1cc(Nc2ccccc2)c(C(=O)Nc2ccc(CS(=O)(=O)NC)cc2)cn1 [Compound 210, 6-[(ethylcarbamoyl)amino]-N-{4-[(methylsulfamoyl)methyl]phenyl}-4-(phenylamino)pyridine-3-carboxamide] | – | 4 (≈ 8.29 µM) | 2 (≈ 4.14 µM) | ≤ 1 |
| CCNC(=O)Nc1cc(Nc2cccc(C(F)(F)F)c2)c(C(=O)Nc2ccc(CCC(=O)O)cc2)cn1 [Compound 240, 3-(4-{[(6-[(ethylcarbamoyl)amino]-4-{[3-(trifluoromethyl)phenyl]amino}pyridin-3-yl)carbonyl]amino}phenyl)propanoic acid] | – | ≤ 1 | ≤ 1 | ≤ 1 |
| CCNC(=O)Nc1cc(Nc2ccnc(OC)c2)c(C(=O)Nc2ccc(CC(C)(C)C(=O)O)cc2)cn1 [Compound 187, 3-{4-[({6-[(ethylcarbamoyl)amino]-4-[(2-methoxypyridin-4-yl)amino]pyridin-3-yl}carbonyl)amino]phenyl}-2,2-dimethylpropanoic acid] | – | ≤ 1 | ≤ 1 | ≤ 1 |
| CCNC(=O)Nc1cc(Nc2ccccc2)c(C(=O)Nc2ccnc(C)c2)cn1 [Compound 90, 6-(3-ethylureido)-N-(2-methylpyridin-4-yl)-4-(phenylamino)nicotinamide] | ≤ 1 | 8 (≈ 20.5 µM) | ≤ 1 | – |
| CCNC(=O)Nc1cc(Nc2ccc(C#N)cc2)c(C(=O)Nc2ccc(CN3CCOCC3)cc2)cn1 [Compound 204, 4-[(4-cyanophenyl)amino]-6-[(ethylcarbamoyl)amino]-N-[4-(morpholin-4-ylmethyl)phenyl]pyridine-3-carboxamide] | – | 4 (≈ 8.01 µM) | ≤ 1 | ≤ 1 |
| CCNC(=O)Nc1cc(Nc2ccccc2)c(C(=O)Nc2ccc(CCC(=O)N(C)OC)cc2)cn1 [Compound 123, 6-(3-Ethylureido)-N-(4-(3-(methoxy(methyl)amino)-3-oxopropyl)phenyl)-4-(phenylamino)nicotinamide] | ≤ 1 | 8 (≈ 16.3 µM) | ≤ 1 | – |
| CCNC(=O)Nc1cc(Nc2ccccc2)c(C(=O)Nc2cc(C(=O)O)n(C)c2)cn1 [Compound 103, 4-(6-(3-ethylureido)-4-(phenylamino)nicotinamido)-1-methyl-1H-pyrrole-2-carboxylic acid] | ≤ 1 | 4 (≈ 9.47 µM) | 4 (≈ 9.47 µM) | – |
| CCNC(=O)Nc1cc(Nc2ccccc2)c(C(=O)Nc2ccc(CC(=O)OCC)cc2)cn1 [Compound 70, ethyl 2-(4-(6-(3-ethylureido)-4-(phenylamino)nicotinamido)phenyl)acetate] | ≤ 1 | 2 (≈ 4.33 µM) | ≤ 1 | – |
| CCNC(=O)Nc1cc(Nc2ccccc2)c(C(=O)Nc2ccc(C(=O)O)cc2)cn1 [Compound 68, 4-(6-(3-ethylureido)-4-(phenylamino)nicotinamido)benzoic acid] | ≤ 1 | 4 (≈ 9.54 µM) | 8 (≈ 19.1 µM) | – |
| CCNC(=O)Nc1cc(Nc2ccccc2)c(C(=O)Nc2ccc(C(=O)OC)cc2)cn1 [Compound 67, methyl 4-(6-(3-ethylureido)-4-(phenylamino)nicotinamido)benzoate] | ≤ 1 | 4 (≈ 9.23 µM) | ≤ 1 | – |
| CCNC(=O)Nc1cc(Nc2ccccc2)c(C(=O)Nc2ccc(CCC(=O)O)cc2)cn1 [Compound 78, 3-[4-[[4-anilino-6-(ethylcarbamoylamino)pyridine-3-carbonyl]amino]phenyl]propanoic acid] | ≤ 1 | 2 (≈ 4.47 µM) | ≤ 1 | – |
| CCNC(=O)Nc1cc(Nc2ccccc2)c(C(=O)Nc2ccc(CCC(=O)O)nc2)cn1 [Compound 166, 3-{5-[({6-[(ethylcarbamoyl)amino]-4-(phenylamino)pyridin-3-yl}carbonyl)amino]pyridin-2-yl}propanoic acid] | – | 8 (≈ 17.8 µM) | 16 (≈ 35.7 µM) | – |
| CCNC(=O)Nc1cc(Nc2ccc(Cl)cc2)c(C(=O)Nc2ccc([C@@H]3C[C@H]3C(=O)O)cc2)cn1 [Compound 192, (1R,2R)-2-{4-[({4-[(4-chlorophenyl)amino]-6-[(ethylcarbamoyl)amino]pyridin-3-yl}carbonyl)amino]phenyl}cyclopropanecarboxylic acid] | – | 2 (≈ 4.05 µM) | ≤ 1 | – |
| CCNC(=O)Nc1cc(Nc2ccccc2)c(C(=O)Nc2ccc(CC(C)(C)C(=O)O)cc2)cn1 [Compound 130, 3-(4-(6-(3-ethylureido)-4-(phenylamino)nicotinamido)phenyl)-2,2-dimethylpropanoic acid] | ≤ 1 | 4 (≈ 8.41 µM) | ≤ 1 | – |
| CCNC(=O)Nc1cc(Nc2cc(F)cc(F)c2)c(C(=O)Nc2ccc(CCc3nnn[nH]3)cc2)cn1 [Compound 161, 4-(3,5-difluoroanilino)-6-(ethylcarbamoylamino)-N-[4-[2-(1H-tetrazol-5-yl)ethyl]phenyl]pyridine-3-carboxamide] | – | 8 (≈ 15.8 µM) | ≤ 1 | – |
| CCNC(=O)Nc1cc(Nc2ccccc2F)c(C(=O)Nc2ccc(CC(C)(C)C(=O)O)cc2)cn1 [Compound 182, 3-{4-[({6-[(ethylcarbamoyl)amino]-4-[(2-fluorophenyl)amino]pyridin-3-yl}carbonyl)amino]phenyl}-2,2-dimethylpropanoic acid] | – | 4 (≈ 8.1 µM) | ≤ 1 | – |
| CCNC(=O)Nc1cc(Nc2cccc(Cl)c2)c(C(=O)Nc2ccc(CC(C)(C)C(=O)O)cc2)cn1 [Compound 177, 3-{4-[({4-[(3-chlorophenyl)amino]-6-[(ethylcarbamoyl)amino]pyridin-3-yl}carbonyl)amino]phenyl}-2,2-dimethylpropanoic acid] | – | 4 (≈ 7.84 µM) | ≤ 1 | – |

— patent US9060515B2, “Heterocyclic urea compounds” (BIOTA EUROPE LTD, priority 2011, dated 2015)
